Measurements as given in patent US20200345846A1, “CORROLE COMPOSITIONS” (TECHNION RESEARCH & DEVELOPMENT FOUNDATION LIMITED, priority 2017, published 2020).

System: DU-145 prostate cancer cell line
Experiment: FACS analysis with annexin V-FITC kit (apoptosis)
Format: cell-based, human
Conditions: analysis after 4 h
Method: Cells (DU-145) were seeded in 6-well microtiter plates (5×10^4 cells/mL; 3 mL per well) 24 h before the addition of assigned compounds/albumin particles. At the time of drug treatment, stock solutions of compounds were diluted to 10-fold the desired final test concentrations with EMEM medium. Aliquots of 300 μL of these diluted solutions were added to the appropriate microtiter wells containing 2700 μL of medium, resulting in the required final drug concentrations (according to assigned concentration). The final concentration of DMSO (given that the compound required DMSO for solvation) in test culture was <1%. […] Following 24-72 h of exposure at 37° C., cells were re-suspended with trypsin into PBS pH 7.2 and pelleted at 3000 rpm for 5 min. Samples were washed under PBS×3 times. Samples were taken for measurement using a BD LSR-II Analyzer supported with BD FACSDiVa™ Software Version 6.1 for data analysis. Corrole fluorescence was measured using appropriate filters for excitation (405 nm, DAPI) and emission (Ds-RED). FIGS. 15A-F present FACS analysis of DU-145 prostate cancer cell line treated with an annexin V-FITC kit after 4 h incubation with: HSA control; FIGS. 15B-F present 5-Ga HSA NP's 2, 5, 10, 15, 20 μM respectively. […] Analysis of β-lapachone was done after 4 h since it induces apoptosis faster.

## CC1(C)CCC2=C(O1)c1ccccc1C(=O)C2=O [Corrole 0-lapachone, β-lapachone]
  shift of annexin V-FITC distribution curve: strong shift of the distribution curve towards stronger mean fluorescence
